Paper PMC6353801, “Enhanced Anti-diabetic Effect of Berberine Combined With Timosaponin B2 in Goto-Kakizaki Rats, Associated With Increased Variety and Exposure of Effective Substances Through Intestinal Absorption” (Frontiers in Pharmacology, 2019)
Where “and” joins values, the source holds several entries; their conditions need not be identical. Equal entries are not always repeated.

Assays:
[1] = PK in portal vein plasma of Wistar rats (before hepatic clearance); settings: for AUC / Cmax / Tmax / half-life: male, Wistar, rat, po
[2] = usually in various species; ref Liu et al., 2016; cited from earlier work
[3] = PK in systemic plasma of Wistar rats (after hepatic clearance) and liver extraction ratio; settings: for ERliver (liver extraction ratio): (AUCpor−AUCsys)/AUCpor; for increase in AUC on co-administration vs single treatment / Tmax / AUC / Cmax / half-life / AUC ratio between M1 and BBR: systemic plasma; for Tmax: n = 5
[4] = Transport in Caco-2 cells; assay type: in vitro ADME, human; settings: human
Protocol: The culture medium was changed every other day for the first 7 days and then daily for the next 14 days. […] Prior to the transport experiments, the cell monolayers were washed three times with HBSS at 37°C. […] At the same time, the corresponding opposite side was filled with medium as the receiving chamber. After incubation for 30, 60, 90, and 120 min, 250-μl aliquots of the medium was taken from the receiving chamber at each time point, and prepared for analysis by HPLC–MS/MS. […] where (ΔQ/Δt) is the linear slope of the drug concentration in the receptor chamber over time, A represents the surface area of the membrane (1.12 cm^2), and C0 is the initial concentration of drug in the donor chamber. The efflux ratio (ERpermeability) for BL to AP and AP to BL transport was defined by the following equation: […] where Papp (BL–AP) and Papp (AP–BL) are the apparent permeability of drugs from the basolateral (BL) to apical (AP) and AP to BL sides of the monolayer, respectively.

[5] = Liver distribution in Wistar rats; settings: for increase in AUC on co-administration vs single treatment / increase in Cmax on co-administration vs single treatment / AUC ± SE / Cmax / Tmax / exposure (AUC) of metabolite as share of the exposure of BBR: Wistar rats; for increase in AUC on co-administration vs single treatment / increase in Cmax on co-administration vs single treatment / AUC ± SE / Cmax / half-life / Tmax / exposure (AUC) of metabolite as share of the exposure of BBR: liver; for AUC ± SE / Cmax / half-life / Tmax: n = 5; for Cmax / half-life / Tmax: male, Wistar, rat, po; for Cmax: Cmax ± SE; for half-life: T1/2, Wistar rats
[6] = PK in systemic plasma of GK rats after repeated oral administration (day 35); assay type: in vivo, rat; settings: GK rats, systemic plasma; for increase in AUC on combination vs single treatment / increase in Cmax on combination vs single treatment: day 35; for Cmax / half-life / Tmax / AUC: male, GK, rat, po, mean ± SE, n = 8; for Cmax / half-life / Tmax: plasma; for half-life: read-out: T1/2 (converted); for Tmax: read-out: Tmax; for AUC: read-out: AUC
Protocol: Analyses were performed on a Shimadzu LCMS-8030 triple quadrupole system (Shimadzu Corp., Japan) equipped with an electrospray ionization source. Data processing was performed using Shimadzu LC–MS LabSolutions (version 5.42 SP4, Shimadzu, Japan). Chromatographic separation was carried out on a Waters CORTECS C18+ column (100 mm × 2.1 mm, 2.7 μm, Ireland) with a security guard C18+ column (5 mm × 2.1 mm, 2.7 μm, Ireland). […] The gradient elution was 85% B from 0 to 2.5 min, 85% B–83% B from 2.5 to 3.0 min, 83% B from 3.0 to 6.0 min, 83% B–40% B from 6.0 to 6.5 min, 40% B from 6.5 to 7.0 min, 40% B–85% B from 7.0 to 7.2 min, and 85% B from 7.2 to 12 min. […] The optimized precursor-to-product ion pairs (collision energy) were in the positive mode as follows: m/z 579.20–255.15 (28 V) for TB-2 (at 4.1 min) and timosaponin A3 (at 6.1 min) and 271.50–154.70 (25 V) for tolbutamide (IS, at 5.8 min). […] If the concentrations of the compounds were over the linear range, the relevant samples were diluted with blank matrix by a factor of 10. […] Four-week-old male GK rats were fed a high-fat diet, and age-matched non-diabetic Wistar rats were fed standard chow as the control group. Under these dietary conditions, blood glucose was estimated each week for 7 weeks in 12-h fasted rats using a portable glucometer (One Touch Sure Step Meter, Johnson & Johnson, United States) by drawing the blood from the tail vein. GK rats with fasting blood glucose levels (FBG) above 16.7 mM were considered as diabetic rats, and only uniformly diabetic rats were used in this study. […] All the drugs were suspended in 0.5% carboxymethylcellulose sodium (CMC-Na) solution for oral gavage (10 ml/kg) once per day (at 9:00) for 6 weeks. Simultaneously, the Wistar and vehicle groups received vehicle over the treatment period. Food consumption and body weight were measured every week throughout the experimental periods. Non-fasting blood glucose (NFBG) levels were determined by collecting blood samples from the tail vein (at 9:00), and FBG levels were determined after a 6-h fast (at 15:00) on days 0, 7, 14, 21, and 42. On day 28, an oral glucose tolerance test (OGTT) was performed after an overnight fast. […] On day 42, the rats were anesthetized with urethane (1.4 g/kg, dissolved in saline) after an overnight fast and were sacrificed to collect the liver, kidney, heart, and spleen. The organs were weighed after washing with saline and drying to calculate the organ coefficient, namely, the ratio between the weight of organs and the body in each rat. The liver samples were diluted with 3 volumes (0.5 g/1.5 ml) of saline and homogenized. The liver homogenates and plasma samples (100 μl) were precipitated with three volumes of acetonitrile (containing 10 μg/ml tolbutamide). […] Then, 100 μl of the original mobile phase was added, and the samples were vortexed for 5 min and centrifuged at 13,000 rpm at 4°C for 10 min. Finally, the supernatant was used for HPLC–QQQ–MS/MS analysis. A non-compartmental analysis was performed using WinNonlin software (Pharsight 6.2, Raleigh, NC, United States) to calculate the PK parameters. The significance of PK parameters in normal rats, generated by the sparse method in WinNonlin, was assessed with Welch’s unequal variances t-test. The significance of the other results was assessed using two-tailed Student’s t-tests. Statistical significance was defined as P < 0.05.

[7] = Wistar rats, oral BBR 66.7 mg/kg alone
[8] = Wistar rats, oral BBR+TB-2 (100 mg/kg)
[9] = Wistar rats, TB-2+BBR treatments
[10] = male, Wistar, rat, plasma, po, 66.7 mg/kg, Tmax, Wistar rats, single oral BBR 66.7 mg/kg alone
[11] = male, Wistar, rat, po, 66.7 mg/kg
[12] = male, Wistar, rat, po, 100 mg/kg
[13] = male, Wistar, rat, po, 100 mg/kg, Tmax, Wistar rats, single oral BBR+TB-2 (100 mg/kg)
[14] = Caco-2, no inhibitor, digoxin 10 μM, TB-2 5 μM, BBR 10 μM, n = 3
[15] = single oral BBR 66.7 mg/kg alone
[16] = single oral BBR+TB-2 (66.7+33.3 mg/kg)
[17] = 33.3 mg/kg, single oral BBR+TB-2 (66.7+33.3 mg/kg)
[18] = 66.7 mg/kg, single oral BBR 66.7 mg/kg alone
[19] = 33.3 mg/kg, day 35, oral BBR+TB-2 (66.7+33.3 mg/kg)
[20] = 66.7 mg/kg, day 35, oral BBR 66.7 mg/kg alone

COc1ccc2cc3[n+](cc2c1OC)CCc1cc2c(cc1-3)OCO2 [BBR, berberine]
increase in AUC on co-administration vs single treatment ([1]; Wistar rats): 114%
AUC ([1]; 66.7 mg/kg): 198 ± 22.2 ng·h/mL
Cmax ([1]; 66.7 mg/kg): 63.1 ± 18.5 ng/mL
Tmax ([1]; 66.7 mg/kg): 2 h
half-life ([1]; 66.7 mg/kg): 9.8 h
AUC ([1]; 100 mg/kg): 424 ± 60.5 ng·h/mL
Cmax ([1]; 100 mg/kg): 145 ± 50.3 ng/mL
Tmax ([1]; 100 mg/kg): 2 h
half-life ([1]; 100 mg/kg): 10.5 h
bioavailability [2]: < 1%
ERliver (liver extraction ratio) [3, 7]: 87.3%
ERliver (liver extraction ratio) [3, 8]: 90.0%
AUC in portal vein plasma, fold higher than in systemic plasma ([3]; Wistar rats, BBR treatments): 6.9 fold
AUC in portal vein plasma, fold higher than in systemic plasma [3, 9]: 9.1 fold
AUC in portal vein plasma, fold higher than in systemic plasma (discussion) ([3]; Wistar rats, single or combination treatments): approximately 10 fold
increase in AUC on co-administration vs single treatment ([3]; Wistar rats): didn’t increase
Tmax ([3]; Wistar rats, single oral BBR 66.7 mg/kg alone): 0.2 h
Tmax [3, 10]: 0.167 h
AUC [3, 11]: 25.1 ± 4.1 ng·h/mL
Cmax [3, 11]: 11.1 ± 3.4 ng/mL
half-life [3, 11]: 1.9 h
AUC [3, 12]: 42.1 ± 11.7 ng·h/mL
Cmax [3, 12]: 10.8 ± 3.9 ng/mL
half-life [3, 12]: 2.3 h
Tmax [3, 13]: 2 h
efflux ratio at 120 min ([4]; Caco-2, Caco-2, no inhibitor, Papp (BL−AP)/Papp (AP−BL), read-out: ERpermeability (efflux ratio)): 71.4
Papp A→B at 120 min [4, 14]: 0.038 ± 0.011 ×10⁻⁶ cm/s
Papp B→A at 120 min [4, 14]: 2.71 ± 0.355 ×10⁻⁶ cm/s
increase in AUC on co-administration vs single treatment [5]: didn’t elicit statistical significance
increase in Cmax on co-administration vs single treatment [5]: 136%
AUC ± SE [5, 15]: 3255.1 ± 247.5 h ∗ ng/g
AUC ± SE [5, 16]: 4600.3 ± 645.1 h ∗ ng/g
Cmax [5, 17]: 1880 ± 418 ng/g
half-life [5, 17]: 6.9 h
Tmax [5, 17]: 2 h
Cmax [5, 18]: 795 ± 157 ng/g
half-life [5, 18]: 14.8 h
Tmax [5, 18]: 2 h
improvement of levels on co-administration ([5]; normal rats, in the plasma and liver): 41–114%
increase in AUC on combination vs single treatment [6]: 107%
increase in Cmax on combination vs single treatment [6]: 695%
Cmax [6, 19]: 42.2 ± 17.4 ng/mL
half-life [6, 19]: 9.3 ± 2.5 h
Tmax [6, 19]: 0.9 ± 0.1 h
Cmax [6, 20]: 5.3 ± 0.4 ng/mL
half-life [6, 20]: 28.1 ± 11.7 h
Tmax [6, 20]: 4.6 ± 1.5 h
AUC [6, 19]: 155 ± 59.7 ng·h/mL
AUC [6, 20]: 74.8 ± 3.5 ng·h/mL

COc1ccc2cc3[n+](cc2c1O)CCc1cc2c(cc1-3)OCO2 [M1, Berberrubine]
increase in AUC on co-administration vs single treatment ([1]; Wistar rats): 89%
increase in Cmax on co-administration vs single treatment ([1]; Wistar rats): 105%
AUC ratio between M1 and BBR ([1]; Wistar rats, BBR treatments): 28.1%
AUC ratio between M1 and BBR [1, 9]: 24.9%
AUC ([1]; 66.7 mg/kg): 55.7 ± 3.5 ng·h/mL
Cmax ([1]; 66.7 mg/kg): 3.5 ± 1 ng/mL
Tmax ([1]; 66.7 mg/kg): 6 h
half-life ([1]; 66.7 mg/kg): 9.7 h
AUC ([1]; 100 mg/kg): 106 ± 6.2 ng·h/mL
Cmax ([1]; 100 mg/kg): 7.2 ± 1.5 ng/mL
Tmax ([1]; 100 mg/kg): 9 h
half-life ([1]; 100 mg/kg): 7 h
ERliver (liver extraction ratio) [3, 7]: 81.9%
ERliver (liver extraction ratio) [3, 8]: 81.3%
AUC in portal vein plasma, fold higher than in systemic plasma ([3]; Wistar rats, BBR treatments): approximately fivefold
AUC in portal vein plasma, fold higher than in systemic plasma [3, 9]: approximately fivefold
increase in AUC on co-administration vs single treatment ([3]; Wistar rats): 95%
AUC ratio between M1 and BBR ([3]; Wistar rats, BBR treatments): 40.2%
AUC ratio between M1 and BBR [3, 9]: 46.8%
Tmax [3, 10]: 6 h
AUC [3, 11]: 10.1 ± 0.6 ng·h/mL
Cmax [3, 11]: 1 ± 0.2 ng/mL
half-life [3, 11]: 5.8 h
AUC [3, 12]: 19.7 ± 2.9 ng·h/mL
Cmax [3, 12]: 2 ± 0.2 ng/mL
half-life [3, 12]: 1.9 h
Tmax [3, 13]: 9 h
increase in AUC on co-administration vs single treatment [5]: 282%
increase in Cmax on co-administration vs single treatment [5]: 109%
exposure (AUC) of metabolite as share of the exposure of BBR ([5]; TB-2+BBR treatments): 77% and 77.5%
AUC ± SE [5, 15]: 932.5 ± 155.4 h ∗ ng/g
AUC ± SE [5, 16]: 3565.3 ± 256.7^∗∗∗ h ∗ ng/g
exposure (AUC) of metabolite as share of the exposure of BBR ([5]; single treatment (On TB-2 treatments)): 29% and 28.6%
Cmax [5, 17]: 238 ± 39.5 ng/g
half-life [5, 17]: 4.2 h
Tmax [5, 17]: 6 h
Cmax [5, 18]: 114 ± 10.6 ng/g
half-life [5, 18]: 4.6 h
Tmax [5, 18]: 4 h
levels of M1 as share of the parent drug ([6]; BBR treatments): 75%
levels of M1 as share of the parent drug ([6]; TB-2+BBR treatments): 61%
increase in AUC on combination vs single treatment [6]: didn’t significantly increase
increase in Cmax on combination vs single treatment [6]: didn’t significantly increase
Cmax [6, 19]: 6.6 ± 2 ng/mL
half-life [6, 19]: 23.9 ± 7.4 h
Tmax [6, 19]: 9.4 ± 1.2 h
Cmax [6, 20]: 4.3 ± 1.7 ng/mL
half-life [6, 20]: 100 ± 92.2 h
Tmax [6, 20]: 10.4 ± 3.1 h
AUC [6, 19]: 94.9 ± 26.4 ng·h/mL
AUC [6, 20]: 56.3 ± 18.5 ng·h/mL
